Consider 20 compounds from US7811609B2, “Use of metal compounds to treat gastrointestinal infections” (priority 2000, dated 2010).

One assay concerns Enterococcus faecalis. Kind of assay: MIC against Enterococcus faecalis. The class given is cell-based. The note with it: Table 4.
The next assay relates to Klebsiella. Kind of assay: MIC against Klebsiella. The note with it: Table 4. Format: cell-based.
In a further assay the test system is Echerichia coli. Kind of assay: MIC against Echerichia coli. Format: cell-based. The note with it: Table 4.
The subject of another assay is Helicobacter pylori. Kind of assay: MIC against Helicobacter pylori by two fold serial dilution in growth medium. The class given is cell-based. To be noted: for Average Selectivity Ratio: (Sum of MIC values against all bacteria except H. pylori ÷ No. of MIC values) ÷ MIC value for H. pylori; for Mean ratio pH 4:pH 7, first value: Strain 1 (Chloride: against first pH 7 value); for MIC, Strain 1 (pH 7): pH 7 (first value where two are given); for Mean ratio pH 4:pH 7, second value: Strain 2 (Chloride: Strain 1 against second pH 7 value); for effect on the MIC of cobalt against H. pylori: weight ratio of 1:5 (cobalt:cysteine and/or methionine).

The subject of the next assay is Staphylococcus aureus. Kind of assay: MIC against Staphylococcus aureus. The class given is cell-based. The note with it: Table 4.
Assay [1] concerns Pseudomonas aeruginosa. Kind of assay: MIC against Pseudomonas aeruginosa. The note with it: Table 4. Format: cell-based.
A further assay has as its system E. coli. The note with it: extrapolated from survival rates; protein broth then phosphate-buffered saline; Zhao et al 1998; cited from earlier work.
The test system of assay [2] is Staphylococcus (aureus or Oxford Staph). To be noted: extrapolated from survival rates; protein broth then phosphate-buffered saline; Zhao et al 1998; cited from earlier work.
For assay [3], the system named is Pseudomonas aeruginosa. The note with it: extrapolated from survival rates; protein broth then phosphate-buffered saline; Zhao et al 1998; cited from earlier work.
In assay [4] the test system is H. pylori. The note with it: H. pylori; cited from earlier work.
Assay [5] concerns H. pylori. The note with it: cited from earlier work.
Setting [6] is: STH broth, NCTC 11637 and seven clinical isolates.
Setting [7] is: pH 4-7: pH of the media changes during the experiment from acidic start.

≈ marks a conversion by molar mass, not a printed value. Where two headings read alike, the source gives them in different places.

Description for Helicobacter pylori: Solutions of metal salts were prepared by dilution of the metal salt, optionally together with the ligand, in ultra-high-purity water. The pH values were adjusted to 7 with concentrated sodium hydroxide. The solutions were γ irradiated for 20 to 30 minutes for sterilisation, and then diluted ten fold in the bacterial growth medium to be used.
A gradient of concentration was obtained by two fold serial dilutions of the medium. The concentrations of metals were analysed by inductively coupled plasma spectrometry. Each dilution was inoculated with the different bacteria to be tested, by multi-point inoculating on the agar media, or suspending in the broth media.
The presence or absence of bacterial growth was reported within the concentration gradient and the minimum concentration of complex in the medium that inhibits totally the bacterial growth (MIC) was determined. The growth on an agar plate was detected by the presence of colonies, and by turbidity in the broth media. The bacteria were identified by the Gram morphology test. Helicobacter pylori growth was also confirmed by biochemical test on the catalase, urease and oxidase activity.

Broadly, the MIC is the lowest concentration that inhibits growth of the organism. Consider `[Cl][Fe]([Cl])[Cl]` [Fe^3+], for which the MIC, Ent faecalis against Enterococcus faecalis is more than 32 mg/L. In addition, in the assay with Klebsiella, the MIC, Klebsiella is more than 32 mg/L. Moreover, the MIC, E. coli with Echerichia coli was more than 32 mg/L. Besides, the “Average Selectivity Ratio” value in the assay with Helicobacter pylori worked out at 1.00. For the same compound, the “MIC” value with Helicobacter pylori (setting [6]) was more than 32 mg/L. In the assay on Helicobacter pylori (Table 4), the “MIC, H. pylori” value was >32/>32 and the “MIC, H. pylori, first of two values” is recorded as >32/>32. The MIC, Staphylococcus (aureus or Oxford Staph) in the assay on Staphylococcus aureus is more than 32 mg/L. In the assay with Pseudomonas aeruginosa [1], this compound showed an MIC, Pseudomonas aeruginosa of more than 32 mg/L.
For `O=[N+]([O-])[O-].O=[N+]([O-])[O-].O=[N+]([O-])[O-].[Cr+3]` [Cr^2+ (chromium nitrate), chromium nitrate, reference compound], the “MIC” value in the assay with Helicobacter pylori (setting [6]) is more than 32 mg/L.
Regarding `Br` [Co bromide], the minimum inhibitory concentration (MIC) in the assay on Helicobacter pylori (Helicobacter pylori, pH 7, read-out: MIC, pH 7) was 1 to 4 mg/L. Further, in the assay with Helicobacter pylori (Helicobacter pylori, pH 4-7: pH of the media changes during the experiment from acidic start, read-out: MIC, pH 4-7), the MIC is 0.06 to 0.125 mg/L. Moreover, in the assay on Helicobacter pylori, the “Mean ratio pH 4:pH 7, first value” is reported as 0.036; the “MIC, Strain 1 (pH 4)” value is reported as less than 0.04; the “MIC, Strain 1 (pH 7)” value stood at 1.12; the “Mean ratio pH 4:pH 7, second value” was 0.02. In addition, the “MIC, Strain 2 (pH 4)” value in the assay on Helicobacter pylori was found to be 0.09. Moreover, the “MIC, Strain 2 (pH 7)” value in the assay with Helicobacter pylori (pH 7) is 4.49.
Consider `CC(=O)[O-].CC(=O)[O-].[Co+2]` [Co acetate], for which, in the assay on Helicobacter pylori, the “Mean ratio pH 4:pH 7, first value” was found to be 0.054; the “MIC, Strain 1 (pH 4)” value is 0.11; the “MIC, Strain 1 (pH 7)” value was 2.03; the “Mean ratio pH 4:pH 7, second value” is recorded as 0.11. For the same compound, the “MIC, Strain 2 (pH 4)” value in the assay on Helicobacter pylori was 0.11. In the assay with Helicobacter pylori (pH 7), the “MIC, Strain 2 (pH 7)” value was 1.01 and the “MIC, pH 7” value was 0.5-2 mg/l. Further, in the assay on Helicobacter pylori (setting [7]), the “MIC, pH 4-7” value is given as 0.125 mg/l.
Turning to `O=[N+]([O-])[O-].O=[N+]([O-])[O-].O=[N+]([O-])[O-].[Bi+3]` [Bi^3+ (bismuth nitrate), bismuth nitrate, reference compound], in the assay with Helicobacter pylori (setting [6]), the “MIC” value was in the range of 4 to 8 mg/L. Also, in the assay on Helicobacter pylori (Table 2 metals compared with cobalt (II)), the “action against H. pylori (in words)” value was “active, but only at much higher levels than cobalt (II)”.
Take `[Ni+2]` [Ni^2+]: the MIC, Ent faecalis against Enterococcus faecalis is more than 32 mg/L. For the same compound, the “MIC, E. coli (footnote a)” value with E. coli was 22.89^a. In the assay on Klebsiella, this compound displayed an MIC, Klebsiella of more than 32 mg/L. In addition, in the assay on Echerichia coli, the MIC, E. coli was more than 32 mg/L. For the same compound, the “MIC, Staphylococcus (aureus or Oxford Staph) (footnote a)” value (shortened to “MIC, Staphylococcus … (footnote a)”) in [2] is 22.89^a. The “Average Selectivity Ratio” value in the assay on Helicobacter pylori is listed as 0.89. For the same compound, the “MIC” value against Helicobacter pylori (setting [6]) was more than 32 mg/L. In the assay on Helicobacter pylori (Table 4), the “MIC, H. pylori” value was >32/>32 and the “MIC, H. pylori, first of two values” is recorded as >32/>32. For the same compound, in the assay with Pseudomonas aeruginosa [3], the “MIC, Pseudomonas aeruginosa (footnote a)” value is listed as 22.89^a. This compound also had an MIC, Staphylococcus (aureus or Oxford Staph) in the assay on Staphylococcus aureus of more than 32 mg/L. Besides, in the assay with Pseudomonas aeruginosa [1], the MIC, Pseudomonas aeruginosa is more than 32 mg/L.
With `[O]=[Mo](=[O])=[O]` [Mo^6+ (molybdenum oxide), molybdenum oxide, reference compound], the minimal inhibitory concentration (MIC) against Helicobacter pylori (setting [6]) was more than 32 mg/L.
For `O=C([O-])[O-].[Co+2]` [Co carbonate], in the assay on Helicobacter pylori, the “Mean ratio pH 4:pH 7, first value” amounted to 0.048; the “MIC, Strain 1 (pH 4)” value was determined as 0.09; the “MIC, Strain 1 (pH 7)” value is given as 1.09; the “Mean ratio pH 4:pH 7, second value” is 0.018. Besides, the “MIC, Strain 2 (pH 4)” value in the assay on Helicobacter pylori is less than 0.02. Moreover, in the assay with Helicobacter pylori (pH 7), the “MIC, Strain 2 (pH 7)” value came to 1.09 and the “MIC, pH 7” value is 0.125-1 mg/l. In the assay on Helicobacter pylori (setting [7]), the “MIC, pH 4-7” value was 0.03-0.125 mg/l.
`[Cl][Mn][Cl]` [Mn^2+] came in with an MIC, Ent faecalis in the assay with Enterococcus faecalis of more than 32 mg/L. Further, the MIC, Klebsiella against Klebsiella was more than 32 mg/L. In the assay with Echerichia coli, the MIC, E. coli is more than 32 mg/L. Further, in the assay with Helicobacter pylori, the “Average Selectivity Ratio” value is listed as 1.00. Moreover, the “MIC” value against Helicobacter pylori (setting [6]) was more than 32 mg/L. For the same compound, in the assay on Helicobacter pylori (Table 4), the “MIC, H. pylori” value is on record as >32/>32 and the “MIC, H. pylori, first of two values” is listed as >32/>32. The compound further gave an MIC, Staphylococcus (aureus or Oxford Staph) with Staphylococcus aureus of more than 32 mg/L. This compound gave an MIC, Pseudomonas aeruginosa with Pseudomonas aeruginosa [1] of more than 32 mg/L.
For the compound `CSCC[C@H](N)C(=O)O` [methionine, reference compound], in the assay with Helicobacter pylori, the “effect on the MIC of cobalt against H. pylori” value was “not to affect the MIC of cobalt against H. pylori”.
Consider `[OH][Co][OH]` [Co hydroxide], for which, in the assay with Helicobacter pylori, the “Mean ratio pH 4:pH 7, first value” was 0.058; the “MIC, Strain 1 (pH 4)” value is recorded as 0.11; the “MIC, Strain 1 (pH 7)” value was found to be 1.9; the “Mean ratio pH 4:pH 7, second value” is 0.029. In addition, in the assay on Helicobacter pylori, the “MIC, Strain 2 (pH 4)” value is given as 0.11. Moreover, in the assay with Helicobacter pylori (pH 7), the “MIC, Strain 2 (pH 7)” value was determined as 3.80 and the “MIC, pH 7” value is 2-4 mg/l. In the assay on Helicobacter pylori (setting [7]), the “MIC, pH 4-7” value is listed as 0.125 mg/l.
In turn, `[Cl-].[Cl-].[Zn+2]` [Zn^2+] registered an MIC, Ent faecalis in the assay with Enterococcus faecalis of more than 32 mg/L. Moreover, in the assay with E. coli, the “MIC, E. coli (footnote a)” value is reported as 17^a. In addition, the MIC, Klebsiella against Klebsiella was more than 32 mg/L. The same compound displayed an MIC, E. coli in the assay with Echerichia coli of more than 32 mg/L. Also, in assay [2], the “MIC, Staphylococcus … (footnote a)” value is given as 17^a. In addition, the “Average Selectivity Ratio” value in the assay on Helicobacter pylori is reported as 0.76. Besides, the “MIC” value in the assay with Helicobacter pylori (setting [6]) is more than 32 mg/L. For the same compound, in the assay on Helicobacter pylori (Table 4), the “MIC, H. pylori” value is listed as >32/32 and the “MIC, H. pylori, first of two values” is listed as >32/32. Moreover, the “MIC, Pseudomonas aeruginosa (footnote a)” value with Pseudomonas aeruginosa [3] is 1.7^a. Further, the MIC, Staphylococcus (aureus or Oxford Staph) with Staphylococcus aureus was more than 32 mg/L. In addition, the MIC, Pseudomonas aeruginosa against Pseudomonas aeruginosa [1] was more than 32 mg/L.
Take `O=C(O)CN(CCN(CC(=O)O)CC(=O)O)CC(=O)O` [EDTA, reference compound]: the “effect of added ligand on the MIC / action of cobalt against H. pylori” value with Helicobacter pylori (ligand added to cobalt) is recorded as “inhibited the action of cobalt against H. pylori”.
On to `N[C@@H](CS)C(=O)O` [cysteine, reference compound], for which the “effect on the MIC of cobalt against H. pylori” value in the assay on Helicobacter pylori is reported as “not to affect the MIC of cobalt against H. pylori”.
Regarding `O=[N+]([O-])[O-].O=[N+]([O-])[O-].[Co+2]` [Co nitrate], in the assay with Helicobacter pylori, the “Mean ratio pH 4:pH 7, first value” turned out to be 0.07; the “MIC, Strain 1 (pH 4)” value is given as 0.05; the “MIC, Strain 1 (pH 7)” value is 0.69; the “Mean ratio pH 4:pH 7, second value” is on record as 0.08. The “MIC, Strain 2 (pH 4)” value against Helicobacter pylori amounted to 0.055. Moreover, in the assay on Helicobacter pylori (pH 7), the “MIC, Strain 2 (pH 7)” value is given as more than 0.69 and the “MIC, pH 7” value was 1 mg/l. Further, the “MIC, pH 4-7” value in the assay with Helicobacter pylori (setting [7]) amounted to 0.06 mg/l.
The term MIC50 denotes an inhibitory concentration at the 50% level, which refers to growth in some studies and to a panel of isolates in others. Regarding `CC[C@H]1OC(=O)[C@H](C)[C@@H](O[C@H]2C[C@@](C)(OC)[C@@H](O)[C@H](C)O2)[C@H](C)[C@@H](O[C@@H]2O[C@H](C)C[C@H](N(C)C)[C@H]2O)[C@](C)(OC)C[C@@H](C)C(=O)[C@H](C)[C@@H](O)[C@]1(C)O` [clarithromycin], in the assay on H. pylori [4], the MIC50 was 0.03 mg/L (≈ 0.0401 µM). The eradication of infections entry with H. pylori [5] (in combination with metronidazole) is “about 70%”; with H. pylori [5] (monotherapy), “about 34%”; with H. pylori [5] (triple therapy with a PPI and either metronidazole or amoxycillin) it was 85-95%.
With `[Cl][Cu][Cl]` [Cu^2+], the MIC, Ent faecalis in the assay with Enterococcus faecalis is more than 32 mg/L. Further, the “MIC, E. coli (footnote a)” value with E. coli is recorded as 17.15^a. In the assay with Klebsiella, this compound yielded an MIC, Klebsiella of more than 32 mg/L. The compound further registered an MIC, E. coli against Echerichia coli of more than 32 mg/L. In assay [2], the “MIC, Staphylococcus … (footnote a)” value is 17.15^a. The “Average Selectivity Ratio” value in the assay on Helicobacter pylori came to 1.02. Also, the “MIC” value in the assay on Helicobacter pylori (setting [6]) was 16 to 32 mg/L. Moreover, the “MIC, H. pylori” value turned out to be 32 in the assay on Helicobacter pylori (Table 4) and 24 mg/L against Helicobacter pylori (Table 4, main value). In the assay on Helicobacter pylori (Table 4), the “MIC, H. pylori, first of two values” was 16. The “MIC, Pseudomonas aeruginosa (footnote a)” value in the assay on Pseudomonas aeruginosa [3] was 1.75^a. The compound further yielded an MIC, Staphylococcus (aureus or Oxford Staph) against Staphylococcus aureus of more than 32 mg/L. The same compound registered an MIC, Pseudomonas aeruginosa in the assay with Pseudomonas aeruginosa [1] of more than 32 mg/L.
For the compound `O=P([O-])([O-])[O-].O=P([O-])([O-])[O-].[Co+2].[Co+2].[Co+2]` [Co phosphate], the “MIC, pH 4-7” value in the assay on Helicobacter pylori (setting [7]) stood at 4 mg/l. Besides, the “MIC, pH 7” value in the assay with Helicobacter pylori (pH 7) stood at 0.8 mg/l.
For Vitamin B12 [reference compound], the “activity against H. pylori” value with Helicobacter pylori (strongly bound cobalt complex) is “greatly reduced activity”.
In the case of `O=S(=O)([O-])[O-].[O]=[V+2]` [V^4+ (vanadyl sulfate), vanadyl sulfate, reference compound], in the assay with Helicobacter pylori (setting [6]), the “MIC” value is more than 32 mg/L.
